Test results reported in patent publication US8809538B2, “Piperidine-containing compounds and use thereof” (Array BioPharma Inc., priority 2009, dated 2014).

Legend:
Crl: CD(SD) rats = experiment: Evaluation of hepatic damage by the compounds in rats; type: in vivo; settings: 100 mg/kg orally once daily for 4 days, blood at the day after the final dosing
Experimental: (3) Evaluation of Hepatic Damage by the Compounds in Rats
The compounds of the present invention were administered orally to male Crl: CD(SD) rats with four animals per group once daily for 4 days at dose levels of 0 (control) and 100 mg/kg to investigate hepatotoxicity. The compounds of the present invention were dissolved in 70% Wellsolve (solubilizer, Celeste Corporation) containing 30% DMSO (dimethyl sulfoxide) and administered orally at a dose volume of 10 mL/kg. The control group was treated with the vehicle at the same dosing volume.
Blood was drawn from the abdominal vein of each animal at the day after the final dosing. The plasma was separated by centrifugation at 13,684×g for 5 min at 4° C. The plasma concentration of aspartate aminotransferase (AST) and alanine aminotransferase (ALT), biochemical markers of hepatic damage, were measured.

[1] = test system: high fat-fed obese mice (C57BL/6-DIO); experiment: Assay of an anti-diabetic effect in DIO (diet-induced obese) mice; type: in vivo; settings: oral, 30 or 100 mg/kg b.i.d. for 15 days, overnight fasting state, dose-dependently
From the text: (1) Assay of an Anti-Diabetic Effect of the Compounds in DIO (Diet-Induced Obese) Mice
Male, 12-weeks old high fat-fed obese mice (C57BL/6-DIO, Charles River Japan) were orally administered with the compounds of the present invention twice a day for 15 days. During the experiment, mice were provided high fat pellet diet (D12492, Research Diets) and tap water from bottle of feed water ad libitum. On the first day of the experiment, blood samples were collected from tail vein using a microcapillary to measure plasma glucose concentration. Based on plasma glucose concentration, mice were divided into some groups (five mice per group) and started dosing. The dosing was carried out by oral gavage, after suspending the compounds of the present invention in the previously described vehicle. The control group received only the vehicle. After 15 days from starting the dosing, plasma samples were collected from tail vein at overnight fasting state. Plasma glucose and insulin levels were measured with commercial kits (glucose, Glucose CH-Test Wako®, Wako Pure Chemical Industries, Ltd.; insulin, Rat Insulin ELISA Kit, Morinaga Institute of Biological Science Inc.).

[2] = test system: rat transient focal cerebral ischemia model; experiment: Assay of a neuroprotective effect in the rat transient focal cerebral ischemia model (MCA occlusion); type: in vivo, Sprague Dawley rats; settings: 120 min MCA occlusion, 100 mg/kg orally 1 hour before and 12 hours after MCA occlusion, evaluated at 24 hours after MCA occlusion
Experimental: (2) Assay of a Neuroprotective Effect of the Compound in the Rat Transient Focal Cerebral Ischemia Model.
Transient focal cerebral ischemia (120 min) was induced by intraluminal middle cerebral artery (hereinafter abbreviated to MCA) occlusion using the method of Koizumi et al., (in Japanese Journal of Stroke 1986; 8:1-8). Male Sprague Dawley rats (7 weeks old; Charles River Japan) were used. Under conditions of 30% oxygen and 70% air, the animals inhaled 2.5% halothane (Takeda Chemical Industries, Ltd.) through a halothane vaporizer (Shinano Works). Under the anesthesia, the left common carotid artery (hereinafter abbreviated to CCA), the external carotid artery (hereinafter abbreviated to ECA) and the internal carotid artery (hereinafter abbreviated to ICA) were isolated from surrounding connective tissue, then the CCA and the ECA were ligated with surgical thread. […] Immediately before MCA reperfusion neurological score of animals were observed using the method of Yonemori et al., (in J Cereb Blood Flow Metab 1996; 16: 973-80.) and animals that scored less than 5 were excluded due to insufficient occlusion. […]
At 24 hours after MCA occlusion, neurological score were evaluated. […] The cerebral infarct area was identified in scanned images and measured using image analysis software (Photoshop 5.5/NIH image 1.63) to determine the infarct area per slice. […]

Compound | plasma alanine aminotransferase (ALT) level (Crl: CD(SD) rats) | plasma aspartate aminotransferase (AST) level (Crl: CD(SD) rats) | fasted plasma glucose level [1] | fasted plasma insulin level [1] | cerebral infarct volume [2] | neurological score [2]
CCOc1nc(C(=O)NCC2CCN(Cc3sc(-c4ccccn4)nc3CN(C)C)CC2)cc(N)c1C#N [Example 118, 4-amino-5-cyano-N-((1-((4-((dimethylamino)methyl)-2-(pyridin-2-yl)thiazol-5-yl)methyl)piperidin-4-yl)methyl)-6-ethoxypicolinamide] | not increased | not increased | – | – | – | –
CCOc1nc(C(=O)NCC2CCN(Cc3cnc(-c4ccccn4)s3)CC2)cc(N)c1C#N [Example 115, 4-amino-5-cyano-6-ethoxy-N-((1-((2-(pyridin-2-yl)thiazol-5-yl)methyl)piperidin-4-yl)methyl)picolinamide] | not increased | not increased | significantly decreased | significantly decreased | significant preventive effect | significant preventive effect
